Experimental data: PMC10420992, “Phosphodiesterase 5 and Arginase Inhibitory Activities of the Extracts from Some Members of Nelumbonaceae and Nymphaeaceae Families” (Molecules, 2023)

Assays:
PDE5 (PDE5A1) = target: T1, PDE5 (PDE5A1) (Homo sapiens, UniProt O76074); assay: Phosphodiesterase 5 inhibition assay (two-step radioactive procedure, [3H]cGMP); type: biochemical; settings: for IC50: flavonoids, mean ± SD, triplicate
T1 construct: made in house; host or cells: HEK293 (transient transfection; supernatant of sonicated homogenate)

[1] = system: PDE5 enzymes isolated from the mice lungs; design: method as in PMID 25920267; settings: cited from earlier work
[2] = target: PDE5 enzymes isolated from the lungs and hearts of male guinea pigs; settings: cited from earlier work
[3] = system: rabbit corpus cavernosum tissues; design: method as in PMID 17968465; settings: rabbit tissue; cited from earlier work

PDE5 IC50 level (in words) (PDE5 (PDE5A1))	IC50 (PDE5 (PDE5A1))	PDE5 inhibitory activity of 3 relative to 1, 2 and 4 (PDE5 (PDE5A1); times stronger than 1, 2, and 4)	Compound	PDE5 inhibition (in words) [1]	IC50 [2]	Relaxant effect on corpus cavernosum tissues [3]
micromolar level	4.09 ± 0.76 µM	–	O=c1c(O)c(-c2ccc(O)c(O[C@@H]3OC[C@@H](O)[C@H](O)[C@H]3O)c2)oc2cc(O)cc(O)c12 [Compound 1, quercetin 3’-O-β-xylopyranoside]	–	–	–
micromolar level	5.63 ± 0.2 µM	–	COc1c(-c2ccc(O)c(OC3OCC(O)C(O)C3O)c2)oc2cc(O)cc(O)c2c1=O (stereo not drawn) [Compound 2, quercetin 3-methyl ether 3’-O-β-xylopyranoside]	–	–	–
micromolar level	0.61 ± 0.11 µM	7–9 times	O=c1c(O)c(-c2ccc(O)c(O)c2)oc2cc(O)cc(O)c12 [Compound 3, quercetin]	inhibit PDE5 enzymes	–	–
micromolar level	5.74 ± 2.11 µM	–	COc1c(-c2ccc(O)c(O)c2)oc2cc(O)cc(O)c2c1=O [Compound 4, 3-O-methylquercetin]	–	86.9 µM	–
–	–	–	O=c1c(O)c(-c2ccc(O)cc2)oc2cc(O)cc(O)c12 [Compound 5, kaempferol]	inhibit PDE5 enzymes	–	–
micromolar level	4.41 ± 0.46 µM	–	COc1c(-c2ccc(O)cc2)oc2cc(O)cc(O)c2c1=O [Compound 6, 3-O-methylkaempferol]	–	–	–
–	–	–	COc1ccc(C[C@@H]2c3cc(Oc4cc(C[C@@H]5c6cc(OC)c(OC)cc6CCN5C)ccc4O)c(OC)cc3CCN2C)cc1 [Neferine]	–	–	relaxant effect
